Assay [1] concerns the target T1, Pho91p (Saccharomyces cerevisiae, UniProt P27514).
T1 construct: gene PHO91; full length, cRNA expressed in Xenopus laevis oocytes
T1 sequence (P27514 1-894): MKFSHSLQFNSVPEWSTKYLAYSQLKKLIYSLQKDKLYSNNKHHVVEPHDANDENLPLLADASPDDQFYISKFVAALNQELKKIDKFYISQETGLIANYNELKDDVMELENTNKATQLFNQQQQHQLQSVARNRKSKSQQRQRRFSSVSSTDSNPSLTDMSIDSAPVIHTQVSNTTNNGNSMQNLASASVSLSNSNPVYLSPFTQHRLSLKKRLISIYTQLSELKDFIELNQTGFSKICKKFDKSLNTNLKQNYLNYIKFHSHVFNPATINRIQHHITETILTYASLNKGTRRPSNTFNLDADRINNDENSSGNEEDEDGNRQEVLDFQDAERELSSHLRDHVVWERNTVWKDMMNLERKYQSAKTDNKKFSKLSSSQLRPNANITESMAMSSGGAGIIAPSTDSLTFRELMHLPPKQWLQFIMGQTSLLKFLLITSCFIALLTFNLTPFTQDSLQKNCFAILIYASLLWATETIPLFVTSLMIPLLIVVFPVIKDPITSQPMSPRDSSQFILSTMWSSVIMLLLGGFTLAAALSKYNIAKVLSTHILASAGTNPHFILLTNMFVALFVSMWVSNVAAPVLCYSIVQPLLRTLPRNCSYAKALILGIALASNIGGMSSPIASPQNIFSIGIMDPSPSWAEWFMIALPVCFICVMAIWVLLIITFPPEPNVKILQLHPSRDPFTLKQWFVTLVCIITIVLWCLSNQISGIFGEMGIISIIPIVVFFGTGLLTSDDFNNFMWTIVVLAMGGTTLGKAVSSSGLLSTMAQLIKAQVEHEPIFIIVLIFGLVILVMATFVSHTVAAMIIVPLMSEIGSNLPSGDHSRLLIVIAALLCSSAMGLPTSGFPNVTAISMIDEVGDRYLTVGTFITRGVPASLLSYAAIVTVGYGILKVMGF
The assay is described as follows: two-electrode voltage clamp, Xenopus oocytes. It is filed as cell-based. To be noted: ND96, room temperature.

Assay [2] has as its target T2, TbPho91 (Trypanosoma brucei, UniProt Q383G2).
T2 construct: full length, cRNA expressed in Xenopus laevis oocytes (also in giant vacuoles of pho91-delta yeast)
Description: two-electrode voltage clamp, Xenopus oocytes. It is filed as cell-based. To be noted: activator, modulates 10 mM Pi-evoked current; ND96 pH 7.5; room temperature.

Each structure is given as a SMILES string.

T2 sequence (Q383G2 1-728): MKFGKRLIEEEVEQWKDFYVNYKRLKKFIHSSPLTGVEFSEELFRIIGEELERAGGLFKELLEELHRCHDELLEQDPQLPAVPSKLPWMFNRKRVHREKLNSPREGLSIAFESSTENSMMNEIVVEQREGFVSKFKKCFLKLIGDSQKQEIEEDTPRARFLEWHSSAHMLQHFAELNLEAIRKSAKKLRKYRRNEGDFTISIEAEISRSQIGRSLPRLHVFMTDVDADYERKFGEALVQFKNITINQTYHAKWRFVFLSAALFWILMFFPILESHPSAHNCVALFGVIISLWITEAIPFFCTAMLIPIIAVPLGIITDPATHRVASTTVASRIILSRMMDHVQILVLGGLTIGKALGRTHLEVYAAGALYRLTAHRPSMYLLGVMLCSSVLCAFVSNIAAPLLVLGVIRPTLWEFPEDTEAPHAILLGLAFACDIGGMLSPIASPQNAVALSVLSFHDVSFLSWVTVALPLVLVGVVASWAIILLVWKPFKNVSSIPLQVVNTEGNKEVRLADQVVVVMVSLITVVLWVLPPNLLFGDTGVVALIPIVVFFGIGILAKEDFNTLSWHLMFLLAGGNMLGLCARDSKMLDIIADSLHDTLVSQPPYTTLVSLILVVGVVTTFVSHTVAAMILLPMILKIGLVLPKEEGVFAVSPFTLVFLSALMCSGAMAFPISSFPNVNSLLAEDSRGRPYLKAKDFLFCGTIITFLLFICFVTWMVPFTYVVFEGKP

In the case of `O=P(O)(O)OP(=O)(O)O` [PPi], the “inward current amplitude at 10 mM” value in assay [1] (activator, 10 mM Na+/PPi) amounted to 447.8 ± 84.1 nA.

In the case of `O=P(O)(O)O` [Pi], in assay [1] (10 mM Na+/Pi, Na+ co-transported), the “inward current amplitude at 10 mM” value was 146.8 ± 41.6 nA.

On to `O=P(O)(O)OP(=O)(O)OP(=O)(O)O` [polyP3], for which the “threshold for significant amplification of Na+/Pi current” value in assay [2] came out at 200 µM. In addition, in assay [1] (activator, 10 mM Na+/polyP3), the “inward current amplitude at 10 mM” value came out at 771.6 ± 168.4 nA.
